Among the test systems are ACHN renal; SF-539 CNS; OVCAR-3 ovarian; HL-60(TB) leukemia; HOP-62 NSCLC; 786-0 renal; MOLT-4 leukemia; CCRF-CEM leukemia; HOP-92 NSCLC; NCI-H226 lung.
What all share (assay): NCI-60 cell line screen, 48 h

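Method: 48-hour compound exposure of cells in 96-well plates, five concentrations, linear interpolation of endpoints. GI50 marks 50% less growth. Definition used: TGI = concentration required for complete inhibition of growth.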 A value given as a limit tells only on which side of the number the result lay.

With `C=CCC1(O)c2cccc(NCCO)c2C(=O)c2c(NCCO)cccc21`, the GI50 with ACHN renal, with SF-539 CNS, in the test with OVCAR-3 ovarian, in the test with HL-60(TB) leukemia, with HOP-62 NSCLC and in the test on 786-0 renal was > 100 µM throughout. The GI50 in the test with MOLT-4 leukemia was > 100 µM; in the test on CCRF-CEM leukemia it was > 100 µM; in the test with HOP-92 NSCLC, 80.7 µM; with NCI-H226 lung, > 100 µM. In addition, the TGI with ACHN renal, in the test on SF-539 CNS, in the test with OVCAR-3 ovarian, in the test with HL-60(TB) leukemia, with HOP-62 NSCLC and with 786-0 renal was > 100 µM each time. Besides, the TGI with MOLT-4 leukemia, in the test with CCRF-CEM leukemia, in the test on HOP-92 NSCLC and in the test with NCI-H226 lung was > 100 µM throughout.
In the case of `S=C1Nc2ccc(Cl)cc2C2(c3ccccc3)N3CCN=C3NN12` (stereo not given), the GI50 in the test with ACHN renal was 55.9 µM; in the test with SF-539 CNS it was 36.7 µM; in the test on OVCAR-3 ovarian, 25.7 µM; in the test on HL-60(TB) leukemia, 22.7 µM; in the test with HOP-62 NSCLC, 33.3 µM; in the test with 786-0 renal it was 38.3 µM. Also, the GI50 with MOLT-4 leukemia is 22.8 µM; in the test with CCRF-CEM leukemia it was 26.9 µM; in the test on HOP-92 NSCLC it was 32.3 µM; in the test on NCI-H226 lung, 33.9 µM. Besides, the TGI was > 100 µM in the test on ACHN renal; > 100 µM in the test on SF-539 CNS; 55.2 µM with OVCAR-3 ovarian; 53 µM with HL-60(TB) leukemia; > 100 µM with HOP-62 NSCLC; > 100 µM in the test with 786-0 renal. For the same compound, the TGI in the test with MOLT-4 leukemia was 61.6 µM; in the test on CCRF-CEM leukemia, 70.7 µM; with HOP-92 NSCLC it was > 100 µM; with NCI-H226 lung, > 100 µM.
For `COc1ccccc1/C=N\N=C(N/N=C/c1ccccc1OC)N/N=C/c1ccccc1OC`, the GI50 was 3.14 µM in the test with ACHN renal; 4.27 µM with SF-539 CNS; 2.55 µM with OVCAR-3 ovarian; 3.09 µM with HL-60(TB) leukemia; 2.91 µM in the test on HOP-62 NSCLC; 3.25 µM in the test on 786-0 renal. Further, the GI50 is 3.04 µM in the test on MOLT-4 leukemia, 3.22 µM in the test on CCRF-CEM leukemia, 1.92 µM in the test with HOP-92 NSCLC and 4.08 µM in the test with NCI-H226 lung. In addition, the TGI in the test with ACHN renal is > 100 µM; in the test with SF-539 CNS, > 100 µM; in the test on OVCAR-3 ovarian it was 13.1 µM; in the test with HL-60(TB) leukemia it was 9.26 µM; in the test with HOP-62 NSCLC, 13.4 µM; in the test with 786-0 renal, 67.2 µM. In addition, the TGI with MOLT-4 leukemia is 12.1 µM; in the test on CCRF-CEM leukemia, > 100 µM; with HOP-92 NSCLC, 5.34 µM; in the test on NCI-H226 lung, > 100 µM.
As for `CC(C)NC(=O)OCc1c(COC(=O)NC(C)C)c(-c2ccc(Cl)cc2)n2c1CCC2`, the GI50 was 1.34 µM in the test on ACHN renal; 2.53 µM in the test on SF-539 CNS; 3.08 µM in the test with OVCAR-3 ovarian; 0.79 µM with HL-60(TB) leukemia; 3.05 µM in the test on HOP-62 NSCLC; 2.75 µM in the test with 786-0 renal. The GI50 with MOLT-4 leukemia is 1.42 µM; in the test with CCRF-CEM leukemia, 1.04 µM; in the test on HOP-92 NSCLC, 1.41 µM; with NCI-H226 lung it was 2.31 µM. In addition, the TGI with ACHN renal was found to be 9.19 µM; in the test on SF-539 CNS, 9.72 µM; with OVCAR-3 ovarian, 10.3 µM; with HL-60(TB) leukemia, 9.21 µM; in the test on HOP-62 NSCLC, 16.2 µM; in the test on 786-0 renal, 8.68 µM. In addition, the TGI is > 26.2 µM in the test on MOLT-4 leukemia, > 33.4 µM in the test on CCRF-CEM leukemia, 5.09 µM in the test on HOP-92 NSCLC and 11.3 µM in the test on NCI-H226 lung.
Consider `CCOC(=O)C(=Cc1ccc(C(=O)OC)cc1)C(=O)OCC`, for which the TGI came to 3.48 µM in the test on ACHN renal; 3.17 µM in the test on SF-539 CNS; 9.57 µM with OVCAR-3 ovarian; 4.36 µM in the test with HL-60(TB) leukemia; 4.43 µM in the test with HOP-62 NSCLC; 3.15 µM in the test with 786-0 renal. Further, the TGI with MOLT-4 leukemia came out at 7.74 µM; in the test on CCRF-CEM leukemia it was 4.71 µM; with HOP-92 NSCLC, 4.02 µM; with NCI-H226 lung, 4.45 µM.
Turning to `COc1cccc(/C=C/c2cnc3ccccc3n2)c1OC`, the TGI in the test on ACHN renal is > 100 µM; in the test with SF-539 CNS, > 100 µM; in the test on OVCAR-3 ovarian it was > 100 µM; in the test with HL-60(TB) leukemia, > 100 µM; in the test with HOP-62 NSCLC, 64.9 µM; with 786-0 renal, > 100 µM. Moreover, the TGI with MOLT-4 leukemia is 68.1 µM; with CCRF-CEM leukemia, > 100 µM; in the test with HOP-92 NSCLC, 88.2 µM; with NCI-H226 lung it was > 100 µM.
Regarding `COC(=O)C1(F)C(=O)NC(=O)NC1O` (stereo not given), the TGI with ACHN renal, in the test with SF-539 CNS, in the test on OVCAR-3 ovarian, in the test with HL-60(TB) leukemia, with HOP-62 NSCLC and with 786-0 renal was > 100 µM in each case. The TGI with MOLT-4 leukemia, in the test with CCRF-CEM leukemia, with HOP-92 NSCLC and with NCI-H226 lung was > 100 µM throughout.
Turning to `COc1ccc(/C=C/C(=O)Oc2cc(O)cc(O)c2)cc1`, the TGI in the test on ACHN renal was > 100 µM; in the test on SF-539 CNS, > 100 µM; with OVCAR-3 ovarian it was 32.1 µM; in the test with HL-60(TB) leukemia it was 55.5 µM; in the test on HOP-62 NSCLC, 31.5 µM; in the test on 786-0 renal, > 100 µM. Further, the TGI was 30.7 µM with MOLT-4 leukemia, 37.3 µM in the test on CCRF-CEM leukemia, > 100 µM in the test with HOP-92 NSCLC and > 100 µM in the test on NCI-H226 lung.
In the case of `COc1cc(/C=C2\CCC(CN(C)C)C2=O)ccc1OC(=O)c1ccccc1` (stereo not given), the TGI in the test on ACHN renal came to 28.7 µM; with SF-539 CNS, 30.4 µM; in the test with OVCAR-3 ovarian, 21.3 µM; in the test with HL-60(TB) leukemia it was 8.71 µM; in the test with HOP-62 NSCLC it was 23.5 µM; in the test with 786-0 renal, 12.4 µM. For the same compound, the TGI in the test with MOLT-4 leukemia worked out at 7.03 µM; in the test with CCRF-CEM leukemia, 9.77 µM; in the test on HOP-92 NSCLC it was 32.6 µM; with NCI-H226 lung it was 33.8 µM.

Source of the values: PubChem BioAssay (NCI).
